Measured values: ChEMBL document CHEMBL1201862, “PubChem BioAssay data set” (2004)
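Growth conditions: 96-well plates. Treatment: test compound, 48 hours, 5 concentrations. Analysis: linear interpolation between bracketing concentrations; unreached endpoints set to highest concentration. GI50 = concentration required for 50% inhibition of growth.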 Active and inactive are the calls of the source. No stated cut-off is given here; in the data, active = GI50 up to about 1.1 µM and inactive = higher.

What was measured:
Assay in all cases: NCI-60 cell line screen, 48 h
CAKI-1 = system: CAKI-1
OVCAR-4 = system: OVCAR-4
KM-20L2 = system: KM-20L2
SNB-19 = system: SNB-19
OVCAR-3 = system: OVCAR-3
TK-10 = system: TK-10
HT-29 = system: HT-29
786-0 = system: 786-0
HCT-116 = system: HCT-116
A549 = system: A549
SW-620 = system: SW-620
ACHN = system: ACHN
KM12 = system: KM12
DMS-114 = system: DMS-114
LOX IMVI = system: LOX IMVI
RXF 393 = system: RXF 393
EKVX = system: EKVX
SF-268 = system: SF-268
DMS-273 = system: DMS-273
UACC-257 = system: UACC-257
OVCAR-8 = system: OVCAR-8
MOLT-4 = system: MOLT-4
UACC-62 = system: UACC-62
SK-MEL-28 = system: SK-MEL-28
SF-539 = system: SF-539
SNB-78 = system: SNB-78
DLD-1 = system: DLD-1
OVCAR-5 = system: OVCAR-5
HOP-62 = system: HOP-62
SK-MEL-5 = system: SK-MEL-5
IGROV-1 = system: IGROV-1
HOP-92 = system: HOP-92
M14 = system: M14
NCI-H23 = system: NCI-H23
HCC 2998 = system: HCC 2998
U-251 = system: U-251
HOP-18 = system: HOP-18
HL-60 = system: HL-60
UO-31 = system: UO-31
LXFL 529 = system: LXFL 529
RXF 631 = system: RXF 631
SK-OV-3 = system: SK-OV-3
SR = system: SR
M19-MEL = system: M19-MEL
XF498 = system: XF498
HCT-15 = system: HCT-15
NCI-H460 = system: NCI-H460
CCRF-CEM = system: CCRF-CEM
RPMI-8226 = system: RPMI-8226
Malme-3M = system: Malme-3M
K562 = system: K562
SNB-75 = system: SNB-75
SF-295 = system: SF-295
A498 = system: A498
NCI-H522 = system: NCI-H522
COLO 205 = system: COLO 205
SN12C = system: SN12C
NCI-H226 = system: NCI-H226
SK-MEL-2 = system: SK-MEL-2

For `Cc1cc(O)c2c(c1)C(O)(c1ccc3c(c1O)C(=O)c1c(O)cc(C)cc1C3(O)C1OC(CO)C(O)C(O)C1O)c1cccc(O)c1C2=O` (configuration not stated), the GI50 (CAKI-1) was 17.7 µM (inactive), the GI50 (OVCAR-4) was 12.9 µM (inactive) and the GI50 (KM-20L2) was 18.6 µM (inactive). The GI50 (SNB-19) was 16.4 µM (inactive), the GI50 (OVCAR-3) was 10.5 µM (inactive) and the GI50 (TK-10) was 14.1 µM (inactive). For the same compound, the GI50 (HT-29) was 20.5 µM (inactive), the GI50 (786-0) was 15.3 µM (inactive) and the GI50 (HCT-116) was 11.9 µM (inactive). For the same compound, the GI50 (A549) was 18.3 µM (inactive), the GI50 (SW-620) was 17.3 µM (inactive) and the GI50 (ACHN) was 13 µM (inactive). For the same compound, the GI50 (KM12) was 11.5 µM (inactive), the GI50 (DMS-114) was 9.91 µM (inactive) and the GI50 (LOX IMVI) was 11.4 µM (inactive). For the same compound, the GI50 (RXF 393) was 12.1 µM (inactive), the GI50 (EKVX) was 14.3 µM (inactive) and the GI50 (SF-268) was 20.1 µM (inactive). The GI50 (DMS-273) was 15.1 µM (inactive), the GI50 (UACC-257) was 13.7 µM (inactive) and the GI50 (OVCAR-8) was 13.4 µM (inactive). The GI50 (MOLT-4) was 10.7 µM (inactive), the GI50 (UACC-62) was 12.1 µM (inactive) and the GI50 (SK-MEL-28) was 15 µM (inactive). For the same compound, the GI50 (SF-539) was 13.6 µM (inactive), the GI50 (SNB-78) was 16.1 µM (inactive) and the GI50 (DLD-1) was 11.5 µM (inactive). The GI50 (OVCAR-5) was 18.1 µM (inactive), the GI50 (HOP-62) was 15.3 µM (inactive) and the GI50 (SK-MEL-5) was 18.9 µM (inactive). For the same compound, the GI50 (IGROV-1) was 14.7 µM (inactive), the GI50 (HOP-92) was 6.19 µM (inactive) and the GI50 (M14) was 14.4 µM (inactive). For the same compound, the GI50 (NCI-H23) was 15.2 µM (inactive), the GI50 (HCC 2998) was 16 µM (inactive) and the GI50 (U-251) was 11.6 µM (inactive). For the same compound, the GI50 (HOP-18) was 5.06 µM (inactive), the GI50 (HL-60) was 3.09 µM (inactive) and the GI50 (UO-31) was 17.7 µM (inactive). The GI50 (LXFL 529) was 11.9 µM (inactive), the GI50 (RXF 631) was 16 µM (inactive) and the GI50 (SK-OV-3) was 17.6 µM (inactive). For the same compound, the GI50 (SR) was 8.15 µM (inactive), the GI50 (M19-MEL) was 12.2 µM (inactive) and the GI50 (XF498) was 5.08 µM (inactive). The GI50 (HCT-15) was 12.8 µM, the GI50 (NCI-H460) was 14 µM (inactive) and the GI50 (CCRF-CEM) was 8.34 µM (inactive). The GI50 (RPMI-8226) was 16 µM (inactive), the GI50 (Malme-3M) was 11.7 µM (inactive) and the GI50 (K562) was 5.15 µM (inactive). For the same compound, the GI50 (SNB-75) was 14.1 µM (inactive), the GI50 (SF-295) was 11.6 µM (inactive) and the GI50 (A498) was 13.6 µM (inactive).
For `Cc1cccc(C)c1NC(=O)C(=O)C1C(=O)NC(=O)NC1=O`, the GI50 (CAKI-1) was > 100 µM (inactive), the GI50 (OVCAR-4) was > 100 µM (inactive) and the GI50 (KM-20L2) was > 100 µM (inactive). The GI50 (SNB-19) was > 100 µM (inactive), the GI50 (OVCAR-3) was > 100 µM (inactive) and the GI50 (TK-10) was > 100 µM (inactive). The GI50 (HT-29) was > 100 µM (inactive), the GI50 (786-0) was > 100 µM (inactive) and the GI50 (HCT-116) was > 100 µM (inactive). The GI50 (A549) was > 100 µM (inactive), the GI50 (SW-620) was > 100 µM (inactive) and the GI50 (ACHN) was > 100 µM (inactive). The GI50 (NCI-H522) was > 100 µM (inactive), the GI50 (KM12) was > 100 µM (inactive) and the GI50 (DMS-114) was > 100 µM (inactive). The GI50 (COLO 205) was > 100 µM (inactive), the GI50 (LOX IMVI) was > 100 µM (inactive) and the GI50 (RXF 393) was > 100 µM (inactive). For the same compound, the GI50 (EKVX) was > 100 µM (inactive), the GI50 (SF-268) was > 100 µM (inactive) and the GI50 (DMS-273) was > 100 µM (inactive). The GI50 (UACC-257) was > 100 µM (inactive), the GI50 (OVCAR-8) was > 100 µM (inactive) and the GI50 (MOLT-4) was > 100 µM (inactive). The GI50 (UACC-62) was > 100 µM (inactive), the GI50 (SK-MEL-28) was > 100 µM (inactive) and the GI50 (SF-539) was > 100 µM (inactive). For the same compound, the GI50 (SNB-78) was > 100 µM (inactive), the GI50 (DLD-1) was > 100 µM (inactive) and the GI50 (OVCAR-5) was > 100 µM (inactive). For the same compound, the GI50 (HOP-62) was > 100 µM (inactive), the GI50 (SK-MEL-5) was > 100 µM (inactive) and the GI50 (IGROV-1) was > 100 µM (inactive). For the same compound, the GI50 (HOP-92) was > 100 µM (inactive), the GI50 (M14) was > 100 µM (inactive) and the GI50 (SN12C) was > 100 µM (inactive). For the same compound, the GI50 (NCI-H23) was > 100 µM (inactive), the GI50 (HCC 2998) was > 100 µM (inactive) and the GI50 (U-251) was > 100 µM (inactive). The GI50 (HOP-18) was > 100 µM (inactive), the GI50 (HL-60) was > 100 µM (inactive) and the GI50 (UO-31) was > 100 µM (inactive). For the same compound, the GI50 (LXFL 529) was > 100 µM (inactive), the GI50 (RXF 631) was > 100 µM (inactive) and the GI50 (SK-OV-3) was > 100 µM (inactive). The GI50 (SR) was > 100 µM (inactive), the GI50 (M19-MEL) was > 100 µM (inactive) and the GI50 (XF498) was > 100 µM (inactive). The GI50 (HCT-15) was greater than 100 µM, the GI50 (NCI-H460) was > 100 µM (inactive) and the GI50 (CCRF-CEM) was > 100 µM (inactive). For the same compound, the GI50 (NCI-H226) was > 100 µM (inactive), the GI50 (RPMI-8226) was > 100 µM (inactive) and the GI50 (Malme-3M) was > 100 µM (inactive). The GI50 (K562) was > 100 µM (inactive), the GI50 (SF-295) was > 100 µM (inactive) and the GI50 (A498) was > 100 µM (inactive).
`Cc1ccc(NC(=O)CC2Sc3ccccc3NC2=O)c(C)c1` (configuration not stated) was tested, and the GI50 (CAKI-1) was 21.5 µM (inactive), the GI50 (OVCAR-4) was 22 µM (inactive) and the GI50 (KM-20L2) was 10.9 µM (inactive). The GI50 (SNB-19) was 14.7 µM (inactive), the GI50 (OVCAR-3) was 12.2 µM (inactive) and the GI50 (TK-10) was 20.2 µM (inactive). The GI50 (SK-MEL-2) was 4.56 µM (inactive), the GI50 (786-0) was 13.7 µM (inactive) and the GI50 (HCT-116) was 10.3 µM (inactive). The GI50 (A549) was 16 µM (inactive), the GI50 (SW-620) was 11.4 µM (inactive) and the GI50 (ACHN) was 18.8 µM (inactive). For the same compound, the GI50 (NCI-H522) was 11.4 µM (inactive), the GI50 (KM12) was 4.88 µM (inactive) and the GI50 (DMS-114) was 17.9 µM (inactive). For the same compound, the GI50 (COLO 205) was 8.55 µM (inactive), the GI50 (LOX IMVI) was 19.6 µM (inactive) and the GI50 (RXF 393) was 14 µM (inactive). The GI50 (EKVX) was 46.7 µM (inactive), the GI50 (SF-268) was 21.4 µM (inactive) and the GI50 (DMS-273) was 12.2 µM (inactive). For the same compound, the GI50 (UACC-257) was 2.59 µM (inactive), the GI50 (OVCAR-8) was 18.5 µM (inactive) and the GI50 (MOLT-4) was 6.71 µM (inactive). For the same compound, the GI50 (UACC-62) was 12.2 µM (inactive), the GI50 (SK-MEL-28) was 20.1 µM (inactive) and the GI50 (SF-539) was 14 µM (inactive). For the same compound, the GI50 (SNB-78) was 24.7 µM (inactive), the GI50 (DLD-1) was 8.15 µM (inactive) and the GI50 (OVCAR-5) was 23.3 µM (inactive). For the same compound, the GI50 (HOP-62) was 12.1 µM (inactive), the GI50 (SK-MEL-5) was 6.97 µM (inactive) and the GI50 (IGROV-1) was 23.6 µM (inactive). For the same compound, the GI50 (HOP-92) was 17.4 µM (inactive), the GI50 (M14) was 12.4 µM (inactive) and the GI50 (SN12C) was 38.2 µM (inactive). For the same compound, the GI50 (NCI-H23) was 16.2 µM (inactive), the GI50 (HCC 2998) was 11 µM (inactive) and the GI50 (U-251) was 14 µM (inactive). For the same compound, the GI50 (HOP-18) was 11 µM (inactive), the GI50 (HL-60) was 2.73 µM (inactive) and the GI50 (UO-31) was 13 µM (inactive). For the same compound, the GI50 (LXFL 529) was 24.7 µM (inactive), the GI50 (RXF 631) was 7.94 µM (inactive) and the GI50 (SK-OV-3) was 15.5 µM (inactive). The GI50 (M19-MEL) was 15.3 µM (inactive), the GI50 (XF498) was 18.2 µM (inactive) and the GI50 (NCI-H460) was 11.4 µM (inactive). For the same compound, the GI50 (CCRF-CEM) was 10.7 µM (inactive), the GI50 (NCI-H226) was 14.8 µM (inactive) and the GI50 (RPMI-8226) was 12.8 µM (inactive). The GI50 (Malme-3M) was 14.7 µM (inactive), the GI50 (K562) was 4.01 µM (inactive) and the GI50 (SNB-75) was 4.52 µM (inactive). For the same compound, the GI50 (SF-295) was 16.2 µM (inactive) and the GI50 (A498) was 14 µM (inactive).
